# Measured values taken from patent US8575091B1, “Amylin analogues and pharmaceutical compositions thereof” (Novo Nordisk A/S, priority 2012, dated 2013).
# Numbered stars: 1 amine (or outer) side, 2 acyl side, 3 side chain; on linkers, the order of the positions; unused ones are H or OH. Bridge positions count the residues as written; N and C are the ends. Side chains are listed from the residue outwards. Peptide text beside a SMILES is read from it. * marks the point of attachment. C20 diacid = O=C(O)CCCCCCCCCCCCCCCCCCC(=O)*; γGlu = O=C(O)[C@H](CCC(=O)[*:2])N[*:1]
# How the values were obtained:
# [1] = biological target: T1, human amylin receptor (Homo sapiens, UniProt O60896+P30988); experiment: Assay (V) binding to the human amylin receptor (SPA, 125I-rat amylin); settings: for IC50: human amylin receptor membranes, SPA, read-out: hAmylin-R bind IC50
# T1 construct: expressed in transfected cells
# T1 sequence (P30988 25-474): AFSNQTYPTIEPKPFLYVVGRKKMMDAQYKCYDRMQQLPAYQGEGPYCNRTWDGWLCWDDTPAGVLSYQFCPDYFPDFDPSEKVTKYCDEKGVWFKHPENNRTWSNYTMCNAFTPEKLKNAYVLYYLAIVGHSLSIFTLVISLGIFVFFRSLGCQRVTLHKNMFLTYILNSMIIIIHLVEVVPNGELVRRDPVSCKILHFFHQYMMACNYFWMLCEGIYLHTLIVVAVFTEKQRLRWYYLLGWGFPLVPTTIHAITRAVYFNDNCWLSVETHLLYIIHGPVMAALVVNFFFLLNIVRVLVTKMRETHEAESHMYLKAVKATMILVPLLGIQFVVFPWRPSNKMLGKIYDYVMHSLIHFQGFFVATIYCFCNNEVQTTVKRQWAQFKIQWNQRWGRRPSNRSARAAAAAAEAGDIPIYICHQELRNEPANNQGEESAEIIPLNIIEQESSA
# T1 sequence (O60896 24-148 partner): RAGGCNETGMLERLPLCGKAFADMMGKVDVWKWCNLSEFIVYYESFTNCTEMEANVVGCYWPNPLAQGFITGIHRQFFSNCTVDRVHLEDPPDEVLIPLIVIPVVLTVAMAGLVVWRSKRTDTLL
# In short: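 SPA competition binding on membranes from Amylin 3(a)/CRE-luc cells, 35 ng/μL membranes with 0.05 mg/well beads. Buffer 50 mM Hepes pH 7.4, 1 mM CaCl2, 5 mM MgCl2, 0.1% OA, 0.02% Tween20. IC50 from one-site competition fit as affinity measure.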
# [2] = biological target: T2, human amylin receptor (amylin 3(a) receptor: human calcitonin receptor + RAMP-3) (Homo sapiens, UniProt O60896+P30988); experiment: Assay (II)a functional assay, human amylin receptor (CRE luciferase, BHK cells); type: cell-based; settings: for EC50: functional assay, human amylin receptor, read-out: hAmylin-R funct. EC50
# T2 construct: expressed in transfected cells
# T2 sequence (P30988 25-474): T1 sequence (P30988 25-474)
# T2 sequence (O60896 24-148 partner): T1 sequence (O60896 24-148 partner)
# [3] = biological target: T3, human calcitonin receptor (Homo sapiens, UniProt P30988); experiment: Assay (II)a functional assay, human calcitonin receptor (CRE luciferase, BHK cells);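 note: luminescence from a CRE-driven luciferase reporter, read by single photon counting after cells were exposed to test samples for 3 h at 37 °C under 5% CO2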; type: cell-based; settings: read-out: hCTR funct. EC50
# T3 construct: expressed in transfected cells
# T3 sequence (P30988 25-474): T1 sequence (P30988 25-474)
# [4] = biological target: T3, human calcitonin receptor; experiment: Assay (VII) binding to the human calcitonin receptor (SPA, 125I-Calcitonin); settings: read-out: hCTR bind IC50;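 note: cell membranes coupled to SPA beads, competitive displacement read by scintillation counting, IC50 derived from a one-site competition fit as a measure of receptor affinity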
# [5] = Table 6, human functional selectivity (hCTR EC50 / hAmylin-R EC50)
# [6] = Table 6a, human functional selectivity (hCTR EC50 / hAmylin-R EC50), at least 5
SMILES,IC50 [1] [pM],"Ratio hCT/hAmylin funct. [2, 5]",EC50 [2] [pM],EC50 [3] [pM],IC50 [4] [pM],"Ratio hCT/hAmylin funct. [2, 6]","Ratio hCT/hAmylin funct. ([2]; Table 6i, hCTR funct. EC50 / hAmylin-R funct. EC50)",Ratio hCT/hAmylin funct. ([2]; hCTR funct. EC50 divided by hAmylin-R funct. EC50),"Ratio hCT/hAmylin funct. ([2]; Table 6j, hCTR funct. EC50 / hAmylin-R funct. EC50)","Ratio hCT/hAmylin funct. ([2]; Table 6k, hCTR funct. EC50 / hAmylin-R funct. EC50)","Ratio hCT/hAmylin binding ([1]; human binding ratio, included for comparison)"
CC[C@H](C)[C@H](NC(=O)[C@H](C)NC(=O)CNC(=O)[C@H](Cc1ccccc1)NC(=O)[C@H](CC(N)=O)NC(=O)[C@@H]1CCCN1C(=O)[C@H](CO)NC(=O)[C@H](CO)NC(=O)[C@H](Cc1c[nH]cn1)NC(=O)[C@H](CCCNC(=N)N)NC(=O)[C@H](CC(C)C)NC(=O)[C@H](Cc1ccccc1)NC(=O)[C@H](Cc1c[nH]cn1)NC(=O)[C@H](C)NC(=O)[C@H](CC(C)C)NC(=O)[C@H](CCCNC(=N)N)NC(=O)[C@H](CCC(N)=O)NC(=O)[C@@H](NC(=O)[C@H](C)NC(=O)[C@@H]1CSSC[C@H](NC(=O)[C@@H](N)CCCCNC(=O)CC[C@H](NC(=O)CCCCCCCCCCCCCCCCCCC(=O)O)C(=O)O)C(=O)N[C@@H](CC(N)=O)C(=O)N[C@@H]([C@@H](C)O)C(=O)N[C@@H](C)C(=O)N[C@@H]([C@@H](C)O)C(=O)N1)[C@@H](C)O)C(=O)N1CCC[C@H]1C(=O)N[C@@H](CO)C(=O)N[C@@H](CO)C(=O)N[C@H](C(=O)N1CCC[C@H]1C(=O)N[C@H](C(=O)NCC(=O)N1CCC[C@H]1C(=O)N[C@@H](CC(N)=O)C(=O)N[C@H](C(=O)N[C@@H](Cc1ccc(O)cc1)C(N)=O)[C@@H](C)O)C(C)C)[C@@H](C)O [Example 116] (H-K([γGlu-C20 diacid])CNTATCATQRLAHFLRHSSPNFGAIPSSTPVGPNTY-NH2; disulfide 2-7),82,4.9,71,345,2040,–,–,–,–,–,–
CC[C@H](C)[C@H](NC(=O)[C@H](C)NC(=O)CNC(=O)[C@H](Cc1ccccc1)NC(=O)[C@H](CC(N)=O)NC(=O)[C@@H]1CCCN1C(=O)[C@H](CO)NC(=O)[C@H](CO)NC(=O)[C@H](Cc1c[nH]cn1)NC(=O)[C@H](CCCNC(=N)N)NC(=O)[C@H](CC(C)C)NC(=O)[C@H](Cc1ccccc1)NC(=O)[C@H](CCC(=O)O)NC(=O)[C@H](C)NC(=O)[C@H](CC(C)C)NC(=O)[C@H](CCCNC(=N)N)NC(=O)[C@H](CCC(N)=O)NC(=O)[C@@H](NC(=O)[C@H](C)NC(=O)[C@@H]1CSSC[C@H](NC(=O)[C@@H](N)CCCCNC(=O)CC[C@H](NC(=O)CC[C@H](NC(=O)CCCCCCCCCCCCCCCCCCC(=O)O)C(=O)O)C(=O)O)C(=O)N[C@@H](CC(N)=O)C(=O)N[C@@H]([C@@H](C)O)C(=O)N[C@@H](C)C(=O)N[C@@H]([C@@H](C)O)C(=O)N1)[C@@H](C)O)C(=O)N[C@@H](CC(C)C)C(=O)N[C@@H](CO)C(=O)N[C@@H](CO)C(=O)N[C@H](C(=O)N1CCC[C@H]1C(=O)N[C@H](C(=O)NCC(=O)N1CCC[C@H]1C(=O)N[C@@H](CCC(=O)O)C(=O)N[C@H](C(=O)N[C@@H](Cc1ccc(O)cc1)C(N)=O)[C@@H](C)O)C(C)C)[C@@H](C)O [Example 121] (H-K([γGlu-γGlu-C20 diacid])CNTATCATQRLAEFLRHSSPNFGAILSSTPVGPETY-NH2; disulfide 2-7),69,5.8,222,1280,1560,5.8,5.8,5.8,–,–,–
CC[C@H](C)[C@H](NC(=O)[C@H](C)NC(=O)CNC(=O)[C@H](Cc1ccccc1)NC(=O)[C@H](CC(N)=O)NC(=O)[C@@H]1CCCN1C(=O)[C@H](CO)NC(=O)[C@H](CO)NC(=O)[C@H](Cc1c[nH]cn1)NC(=O)[C@H](CCCNC(=N)N)NC(=O)[C@H](CC(C)C)NC(=O)[C@H](Cc1ccccc1)NC(=O)[C@H](CC(=O)O)NC(=O)[C@H](C)NC(=O)[C@H](CC(C)C)NC(=O)[C@H](CCCNC(=N)N)NC(=O)[C@H](CCC(N)=O)NC(=O)[C@@H](NC(=O)[C@H](C)NC(=O)[C@@H]1CSSC[C@H](NC(=O)[C@@H](N)CCCCNC(=O)CC[C@H](NC(=O)CC[C@H](NC(=O)CCCCCCCCCCCCCCCCCCC(=O)O)C(=O)O)C(=O)O)C(=O)N[C@@H](CC(N)=O)C(=O)N[C@@H]([C@@H](C)O)C(=O)N[C@@H](C)C(=O)N[C@@H]([C@@H](C)O)C(=O)N1)[C@@H](C)O)C(=O)N1CCC[C@H]1C(=O)N[C@@H](CO)C(=O)N[C@@H](CO)C(=O)N[C@H](C(=O)N[C@@H](CC(N)=O)C(=O)N[C@H](C(=O)NCC(=O)N1CCC[C@H]1C(=O)N[C@@H](CCC(=O)O)C(=O)N[C@H](C(=O)N[C@@H](Cc1ccc(O)cc1)C(N)=O)[C@@H](C)O)C(C)C)[C@@H](C)O [Example 122] (H-K([γGlu-γGlu-C20 diacid])CNTATCATQRLADFLRHSSPNFGAIPSSTNVGPETY-NH2; disulfide 2-7),172,5.3,159,843,8560,5.3,–,–,5.3,5.3,–
CC[C@H](C)[C@H](NC(=O)[C@H](C)NC(=O)CNC(=O)[C@H](Cc1ccccc1)NC(=O)[C@H](CC(N)=O)NC(=O)[C@@H]1CCCN1C(=O)[C@H](CO)NC(=O)[C@H](CO)NC(=O)[C@H](Cc1c[nH]cn1)NC(=O)[C@H](CCCNC(=N)N)NC(=O)[C@H](CC(C)C)NC(=O)[C@H](Cc1ccccc1)NC(=O)[C@H](CCC(=O)O)NC(=O)[C@H](C)NC(=O)[C@H](CC(C)C)NC(=O)[C@H](CCCNC(=N)N)NC(=O)[C@H](CCC(N)=O)NC(=O)[C@@H](NC(=O)[C@H](C)NC(=O)[C@@H]1CSSC[C@H](NC(=O)[C@@H](N)CCCCNC(=O)CC[C@H](NC(=O)CC[C@H](NC(=O)CCCCCCCCCCCCCCCCCCC(=O)O)C(=O)O)C(=O)O)C(=O)N[C@@H](CC(N)=O)C(=O)N[C@@H]([C@@H](C)O)C(=O)N[C@@H](C)C(=O)N[C@@H]([C@@H](C)O)C(=O)N1)[C@@H](C)O)C(=O)N1CCC[C@H]1C(=O)N[C@@H](CO)C(=O)N[C@@H](CO)C(=O)N[C@H](C(=O)N[C@@H](CC(N)=O)C(=O)N[C@H](C(=O)NCC(=O)N1CCC[C@H]1C(=O)N[C@@H](CCC(=O)O)C(=O)N[C@H](C(=O)N1CCC[C@H]1C(N)=O)[C@@H](C)O)C(C)C)[C@@H](C)O [Example 125] (H-K([γGlu-γGlu-C20 diacid])CNTATCATQRLAEFLRHSSPNFGAIPSSTNVGPETP-NH2; disulfide 2-7),533,0.8,132,102,226,–,–,–,–,–,0.4
